Values quoted from earlier work in patent publication US9445622B2, “Compositions and methods for improving creatine solubility and stability” (Glanbia Nutritionals (Ireland) Ltd., priority 2009, dated 2016).

Conditions: solid form, over years, even at elevated temperatures

CN(CC(=O)O)C(=N)N.O [creatine monohydrate powder, creatine monohydrate]
stability of solid powder: no signs of degradation
